The subject of assay [1] is mitochondrial biogenesis markers. As to the kind of experiment: Mitochondrial biogenesis markers by q-PCR. Type of assay: cell-based. On the procedure: Analysis of mitochondrial biogenesis-related genes by q-PCR. Total RNA was extracted by using RNeasy Mini Kit (Qiagen) followed by cDNA synthesis using the SuperScript IV VILO Master Mix (Thermo Scientific), both performed according to the manufacturer's protocol. q-PCR was performed using the following primers: For the q-PCR reaction, Power SYBR Green master mix (Thermo Scientific) was used according to the manufacturer's instructions. […] Rpl39 was used as housekeeping gene and 2^−ΔΔCT method was applied to determine the relative mRNAs expression.

Assay [2] has as its system MEFs. As to the kind of experiment: Mitochondrial respiration in cellulo (OCR, Seahorse XF24). The assay is classed as cell-based, mouse. To be noted: WT MEFs; MASM7 1 μM or MFI8 20 μM, 6 hrs. As for the experimental part:
Mitochondrial respiration in cellulo. Mitochondrial oxygen consumption rates (OCR) were assessed using a XF24 Analyzer (Seahorse Biosciences, Billerica MA, USA). In brief, 3×10^4 MEFs were cultured in a XF24 cell culture microplate containing DMEM supplemented with 10% fetal bovine serum. […] OCR was normalized to cell number or total protein content per well for each condition tested.

Assay [3] relates to MOLM13 cells. Put plainly: Caspase 3/7 activation in MOLM13 cells with AMG-176. The following applies: increasing concentrations of AMG-176 and MFI8. The assay is classed as cell-based. On the procedure:
Caspase-3/7 activation assay. Cells (5×10^3 cells/well) were seeded in a 96-well white plate and treated with MASM7, MFI8. Caspase 3/7 activation was measured after 6 hr by addition of the Caspase-Glo 3/7 reagent according to the manufacturer's protocol (Promega). Luminescence was detected by a F200 PRO microplate reader (TECAN). Caspase assays were performed in at least triplicate and the data normalized to vehicle-treated control wells. Dilutions of MASM7 or MFI8 were performed using a TECAN D300e Digital Dispenser from 10 mM stocks.

The subject of assay [4] is cells. As to the kind of experiment: Cell death assay (Annexin V / propidium iodide). To be noted: for sensitization to BV6-induced cell death: in combination with BV6. Type of assay: cell-based. As for the experimental part:
(§1) Cell death assay. Cells (2×10^5 cells/well) were seeded in a 6-well plate and treated with the indicated drugs for 6 hours. Cells were dissociated using Accutase (Thermo Fisher; Cat. #00-4555-56) in order to avoid accidental exposure of phosphatidylserine on the outer plasma membrane. Cell death was evaluated with Dead Cell Apoptosis Kit with Annexin V Alexa Fluor™ 488 & Propidium Iodide (Thermo Fisher; Cat. #V13241) according to manufacturer's protocol. Data was acquired by BD LSRII flow cytometer system using BD FACSDiva software. Data was analyzed by FlowJo (BD).

Assay [5] concerns THP-1 cells. As to the kind of experiment: Cell death with BV6 in THP-1 cells. Type of assay: cell-based. As for the experimental part: as §1
In assay [6] the test system is Calu-6 cells. As to the kind of experiment: Cell death (Annexin V) in Calu-6 cells. The assay is classed as cell-based. To be noted: 20 μM, indicated timepoints. On the procedure:
Calu-6 cells were treated with MFI8 (20 μM). Cell death was monitored at the indicated timepoints using Annexin V as a readout. Data represent mean (n=3).
as §1

The test system of assay [7] is cells. As to the kind of experiment: Cell viability assay (CellTiter-Glo). The assay is classed as cell-based. To be noted: 72 hours. On the procedure: Cell viability assay. […] Cell viability was assayed after 72 hrs by addition of CellTiter-Glo reagent according to the manufacturer's protocol (Promega). Luminescence was measured using a […] microplate reader (TECAN). Viability assays were performed in at least triplicate and the data normalized to vehicle-treated control wells.

For assay [8], the system named is A375 cells. Put plainly: Cell viability, melanoma cells. The assay is classed as cell-based. The following applies: A375, 72 hr, Cell titer Glo. On the procedure:
(§2) Cell titer Glo was used to measure viability. Cells were treated with MFI8 for 72 hr (n=3, mean±SD).
(§3) Cell viability assay. Cells (5×10^3 cells/well) were seeded in a 96-well white plate and treated with serial dilutions of MASM7 or MFI8. Cell viability was assayed after 72 hrs by addition of CellTiter-Glo reagent according to the manufacturer's protocol (Promega). Luminescence was measured using a F200 PRO microplate reader (TECAN). Viability assays were performed in at least triplicate and the data normalized to vehicle-treated control wells. Dilutions of MASM7 or MFI8 were performed using a TECAN D300e Digital Dispenser from 10 mM stocks.

Assay [9] deals with SKML-30 cells. Put plainly: Cell viability, melanoma cells. Type of assay: cell-based. To be noted: SKML-30, 72 hr, Cell titer Glo. As for the experimental part:
as §2, §3
In general terms: In ATP-based viability assays light output follows the ATP content of the culture.

Assay [10] concerns BXPC3 cells. Put plainly: Cell viability, pancreatic cancer cells. The assay is classed as cell-based. The following applies: BXPC3, 72 hr, Cell titer Glo. On the procedure: as §2, §3
Assay [11] deals with Calu-6 cells. Put plainly: Cell viability, lung cancer cells. Type of assay: cell-based. To be noted: Calu-6, 72 hr, Cell titer Glo. On the procedure: as §2, §3
The test system of assay [12] is H2405 cells. Put plainly: Cell viability, lung cancer cells. To be noted: H2405, 72 hr, Cell titer Glo. Type of assay: cell-based. As for the experimental part:
as §2, §3

The subject of assay [13] is U2OS cells. As to the kind of experiment: DNA damage, yH2AX immunofluorescence in U2OS. The assay is classed as cell-based. On the procedure: Immunofluorescent analysis and microscopy. Cells were treated with MASM7, MFI8 and or Q-VD-OPh at ˜70% confluence for 6 h. After treatments, cells were washed with PBS and fixed with 4% PFA for 15 min. Then cells were permeabilized with 0.1% Triton X-100 in PBS for 10 min. Cells were blocked with 5% BSA in PBS-T and incubated overnight with primary antibodies as indicated; yH2AX (Sigma; 05-636, 1:100 dilution). After incubation with primary antibodies, cells were washed with PBS and incubated with the appropriate mouse secondary antibody (ThermoFisher Scientific; A-11001) in the blocking solution. After PBS washes, coverslips were dipped in water and mounted on glass slides using Vectashield containing DAPI (Vector laboratories). […] Data were analyzed with ImageJ.

Assay [14] deals with U2OS cells. Put plainly: Mitochondrial fusion in U2OS cells.

One compound from patent US20240366540A1, “MITOFUSIN INHIBITORS AND USES THEREOF” (Albert Einstein College of Medicine, priority 2021, published 2024) can be followed below.

Molecules are shown by their SMILES.

Turning to `Cc1cccc(NC(C)c2cc(Cl)ccc2O)c1C` (centres unmarked) [MFI8, 4-Chloro-2-(1-((2,3-dimethylphenyl)amino)ethyl)phenol], the “gene expression levels of mitochondrial biogenesis markers” value in assay [1] is reported as “no alteration”. For the same compound, the “respiration and mitochondrial ATP production (OCR)” value in [2] is “reduced respiration and mitochondrial ATP production”. In assay [3], the “caspase 3/7 activation in response to AMG-176” value is “sensitizes cells to caspase activation”. For the same compound, in assay [4] (compound alone, upon caspase 3/7 activation), the “percentage of dead cells” value is on record as “did not increase the percentage of dead cells”. Besides, the “sensitization to BV6-induced cell death” value in assay [4] was “potentiated the capacity of BV6 to induce cell death”; in [4] (deletion of MFN1/2 and APAF), “abolished the capacity of MFI8 to sensitize cells to BV6 treatment”. In [5], the “cell death in combination with BV6” value is given as “synergistically induce cell death”. Also, the “apoptosis / cell death (Annexin V)” value in [6] is given as “induces apoptosis in Calu-6 cells”. For the same compound, the cellular viability result in assay [7] was “neither MFI8 nor MASM7 decreased cellular viability”. Further, the viability result in assay [8], in assay [9], in [10], in assay [11] and in assay [12] was “concentration responsively reduces viability” each time. In addition, the “DNA damage (yH2AX)” value in [13] (U2OS cells) is recorded as “induced DNA damage in U2OS cells”; in [13] (U2OS, co-treatment with pan-caspase inhibitor Q-VD-OPh), “abolished the capacity of the latter to induce DNA damage”. In addition, in [14], the mitochondrial fusion result is reported as “inhibited mitochondrial fusion”.
